Laboratory results taken from PubChem BioAssay AID2060901 (Molecular Pharmacology Branch, DTP, NCI, 2025).
“And” between values parts separate entries of the source, which are not always exact repeats. Equal entries are not always repeated.

Test system: 422866-222-R5-J1-PDC complex spheroids viability
Assay: Anticancer human tumor 422866-222-R5-J1-PDC patient-derived pancreatic adenocarcinoma cell line growth inhibition [RAS]
Settings: for viability, T/C: stronger effect = lower value
Excerpt: RAS pathway inhibitors in Combinations in Complex Spheroids
A high-throughput screen of multi-cell type tumor spheroids was designed to identify active combinations of RAS pathway inhibitors and targeted small molecules. Complex spheroids include a stromal component modeled by human endothelial cells (HUVEC) and fibroblasts modeled by human mesenchymal stem cells (MSCs). The concentration ranges selected for each drug and investigational agent were based upon clinically achievable concentrations if the clinical Cmax of the agent was known.
Compounds. The drugs and investigational agents: abemaciclib (NSC768073), cobimetinib (NSC768068), divarasib (GDC6063, NSC841802), docetaxel (NSC628503), GDC-1971 (RLY-1971, NSC841576), gemcitabine (NSC613327), inavolisib (NSC800729), ipatasertib (NSC767898), KB-0742 (NSC834161), MRTX-1133 (NSC836407), osimertinib (NSC779217), RMC-4630 (NSC839698), RMC-6236 (NSC851965), RMC-6291 (NSC852671), Ro-3306 (NSC812927), sapanisertib (NSC764658), SN-38 (NSC673596), staurosporine (NSC755774), SY5609 (NSC837396), and tovorafenib (DAY101, NSC766906), were obtained from the National Cancer Institute (NCI) Developmental Therapeutics Program Chemical Repository. The FDA-approved anticancer drug set is available from the NCI Developmental Therapeutics Program. […] The stock solutions were prepared in dimethyl sulfoxide (DMSO, Sigma-Aldrich, St. Louis, MO, cat. D2650) at 800-fold the tested concentration and stored at -70 degrees C prior to their use. All drugs and investigational agents were tested over a range starting from a high concentration at or near the clinical Cmax and decreasing in half-log increments. If the clinical Cmax for an agent had not been determined, the highest concentration tested was 10 microM.
Cell Culture. All cells were maintained in an incubator at 37 degrees C and 5% CO2 with 95% humidity. The PDC lines were cultured according to standard operating procedures established by the NCI PDMR. All PDCs were thawed and cultured in Matrigel-coated flasks prepared with a working solution of 1X Ham's F-12 nutrient mix, without supplementation (Invitrogen, Waltham, MA, cat. 11765054), 100 U/mL penicillin-streptomycin (Invitrogen, cat. 15140122), and 2.5% Matrigel (Corning Inc., Corning, NY, cat. 354248) for the first three passages. The 362531-283-R-J2-PDC and 782815-120-R-J1-PDC lines were cultured in 6C/Colon 1B media, which includes advanced DMEM/F-12 (Thermo Fisher Scientific, cat. 12634028), 10 mM HEPES (Thermo Fisher Scientific, cat. 15630080), 1X GlutaMAX supplement (Thermo Fisher Scientific, cat. 35050061), 0.1 mg/mL primocin (InvivoGen, San Diego, CA, cat. ant-pm-2), 10% defined fetal bovine serum, heat inactivated (HyClone Laboratories Inc., Logan, UT, cat. SH30070.03HI), 50% L-WRN conditioned media (ATCC, cat. CRL-3276), 1.25 mM N-Acetyl-L-cysteine (Sigma-Aldrich, cat. A9165), 10 mM nicotinamide (Sigma-Aldrich, cat. N0636), 1X B-27 supplement (Thermo Fisher Scientific, cat. 17504044), 1X N-2 supplement (Thermo Fisher Scientific, cat. 17502048), 50 ng/mL human EGF (Thermo Fisher Scientific, cat. PHG0311), and 10 microM Y-27632 dihydrochloride (Tocris Bioscience, cat. 1254). The K12877-001-R-J1-PDC line was cultured in 6I media, which includes all 6C/Colon 1B media plus 10 ng/mL human FGF-10 (PeproTech, cat. 100-26), 1 ng/mL human FGF-2 (PeproTech, cat. 100-18B), 1 µM prostaglandin E2 (Tocris Bioscience, cat. 2296), […] hydrocortisone (Sigma-Aldrich, cat. H4001), and […] bovine insulin (Sigma-Aldrich, cat. I6634). The K86415-001-R-J1-PDC line was cultured in 6D media, which includes all 6C/Colon 1B media components minus the L-WRN conditioned media. The 485176-168-R4-J1-PDC was cultured in PANC media, which includes all 6C/Colon 1B media plus 100 ng/mL human FGF-10 (PeproTech, cat. 100-26), 500 nM SB-431542 (Selleckchem, cat. S1067), and 10 nM gastrin (Tocris Bioscience, cat. 3006). […]

[1] = curve of first compound, second compound 0.000949 µM
[2] = curve of first compound, second compound 0.003 µM
[3] = curve of first compound, second compound 0.00949 µM
[4] = curve of first compound, second compound 0.03 µM
[5] = curve of first compound, second compound 0.0949 µM
[6] = curve of first compound, second compound 0.3 µM
[7] = second compound 0.000949 µM, first compound 0.0316 µM
[8] = second compound 0.000949 µM, first compound 0.1 µM
[9] = second compound 0.000949 µM, first compound 0.316 µM
[10] = second compound 0.000949 µM, first compound 1 µM
[11] = second compound 0.003 µM, first compound 0.0316 µM
[12] = second compound 0.003 µM, first compound 0.1 µM
[13] = second compound 0.003 µM, first compound 0.316 µM
[14] = second compound 0.003 µM, first compound 1 µM
[15] = second compound 0.00949 µM, first compound 0.0316 µM
[16] = second compound 0.00949 µM, first compound 0.1 µM
[17] = second compound 0.00949 µM, first compound 0.316 µM
[18] = second compound 0.00949 µM, first compound 1 µM
[19] = second compound 0.03 µM, first compound 0.0316 µM
[20] = second compound 0.03 µM, first compound 0.1 µM
[21] = second compound 0.03 µM, first compound 0.316 µM
[22] = second compound 0.03 µM, first compound 1 µM
[23] = second compound 0.0949 µM, first compound 0.0316 µM
[24] = second compound 0.0949 µM, first compound 0.1 µM
[25] = second compound 0.0949 µM, first compound 0.316 µM
[26] = second compound 0.0949 µM, first compound 1 µM
[27] = second compound 0.3 µM, first compound 0.0316 µM
[28] = second compound 0.3 µM, first compound 0.1 µM
[29] = second compound 0.3 µM, first compound 0.316 µM
[30] = second compound 0.3 µM, first compound 1 µM
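Throughout, for viability, T/C: 100% = DMSO vehicle control viability.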

For `NC1c2ccccc2OC12CCN(c1cnc3c(N4CCCc5ncccc54)n[nH]c3n1)CC2` (stereo unspecified), the viability, T/C (compound 0.0316 µM) was 51.6% [middle of 4 runs], the viability, T/C (compound 0.1 µM) was 45.3% [middle of 4 runs] and the viability, T/C (compound 0.316 µM) was 40.2% [middle of 4 runs]. For the same compound, the viability, T/C (compound 1 µM) was 40% [middle of 4 runs], the viability, T/C (compound 3.16 µM) was 36.7% [middle of 4 runs] and the viability, T/C (compound 10 µM) was 33.8% [middle of 4 runs]. For the same compound, the IC50 (curve of compound) was 0.29 µM and < 0.0316 µM.
In the case of `NC1c2ccccc2OC12CCN(c1cnc3c(N4CCCc5ncccc54)n[nH]c3n1)CC2` (stereo unspecified) + CCn1c(-c2cc(N3CCN(C)CC3)cnc2C(C)OC)c2c3cc(ccc31)-c1csc(n1)CC(NC(=O)C1CC1C)C(=O)N1CCCC(N1)C(=O)OCC(C)(C)C2, the IC50 [1] is reported as < 0.0316 µM, the IC50 [2] is reported as < 0.0316 µM and the IC50 [3] is reported as < 0.0316 µM. For the same compound, the IC50 [4] was < 0.0316 µM, the IC50 [5] was < 0.0316 µM and the IC50 [6] was < 0.0316 µM. The viability, T/C [7] was 20.1%, the viability, T/C [8] was 18.4% and the viability, T/C [9] was 14.1%. For the same compound, the viability, T/C [10] was 16.4%, the viability, T/C (second compound 0.000949 µM, first compound 3.16 µM) was 18.4% and the viability, T/C (second compound 0.000949 µM, first compound 10 µM) was 18.5%. The viability, T/C [11] was 19.2%, the viability, T/C [12] was 15.6% and the viability, T/C [13] was 14.8%. The viability, T/C [14] was 16.3%, the viability, T/C (second compound 0.003 µM, first compound 3.16 µM) was 17.4% and the viability, T/C (second compound 0.003 µM, first compound 10 µM) was 19.8%. It also gave a viability, T/C [15] of 16.1%, a viability, T/C [16] of 15.2% and a viability, T/C [17] of 14.6%. It also gave a viability, T/C [18] of 14.7%, a viability, T/C (second compound 0.00949 µM, first compound 3.16 µM) of 18.5% and a viability, T/C (second compound 0.00949 µM, first compound 10 µM) of 16.5%. For the same compound, the viability, T/C [19] was 17.2%, the viability, T/C [20] was 16.4% and the viability, T/C [21] was 16.7%. The viability, T/C [22] was 16.8%, the viability, T/C (second compound 0.03 µM, first compound 3.16 µM) was 18.2% and the viability, T/C (second compound 0.03 µM, first compound 10 µM) was 17.9%. The viability, T/C [23] was 17.5%, the viability, T/C [24] was 18.4% and the viability, T/C [25] was 16.9%. The viability, T/C [26] was 19.2%, the viability, T/C (second compound 0.0949 µM, first compound 3.16 µM) was 18.5% and the viability, T/C (second compound 0.0949 µM, first compound 10 µM) was 18.9%. The viability, T/C [27] was 18.6%, the viability, T/C [28] was 19% and the viability, T/C [29] was 20.5%. For the same compound, the viability, T/C [30] was 19.2%, the viability, T/C (second compound 0.3 µM, first compound 3.16 µM) was 19.8% and the viability, T/C (second compound 0.3 µM, first compound 10 µM) was 22.7%.
For `C=CC(=O)N1CCN(c2nc(OCC3CCCN3C)nc3c(F)c(-c4nc(N)cc(C)c4C(F)(F)F)c(Cl)cc23)C(C)C1` (stereo unspecified) + CCn1c(-c2cc(N3CCN(C)CC3)cnc2C(C)OC)c2c3cc(ccc31)-c1csc(n1)CC(NC(=O)C1CC1C)C(=O)N1CCCC(N1)C(=O)OCC(C)(C)C2, the IC50 [1] was < 0.00316 µM, the IC50 [2] was < 0.00316 µM and the IC50 [3] was < 0.00316 µM. For the same compound, the IC50 [4] was < 0.00316 µM, the IC50 [5] was < 0.00316 µM and the IC50 [6] was < 0.00316 µM. The viability, T/C (second compound 0.000949 µM, first compound 0.00316 µM) was 19.5%, the viability, T/C (second compound 0.000949 µM, first compound 0.01 µM) was 18.6% and the viability, T/C [7] was 16.9%. For the same compound, the viability, T/C [8] was 18.5%, the viability, T/C [9] was 15.8% and the viability, T/C [10] was 20.3%. It also gave a viability, T/C (second compound 0.003 µM, first compound 0.00316 µM) of 19.6%, a viability, T/C (second compound 0.003 µM, first compound 0.01 µM) of 15% and a viability, T/C [11] of 19.8%. For the same compound, the viability, T/C [12] was 18.2%, the viability, T/C [13] was 17.9% and the viability, T/C [14] was 20.6%. For the same compound, the viability, T/C (second compound 0.00949 µM, first compound 0.00316 µM) was 18.3%, the viability, T/C (second compound 0.00949 µM, first compound 0.01 µM) was 19.1% and the viability, T/C [15] was 17.4%. It also gave a viability, T/C [16] of 14.8%, a viability, T/C [17] of 17.7% and a viability, T/C [18] of 18%. For the same compound, the viability, T/C (second compound 0.03 µM, first compound 0.00316 µM) was 17.1%, the viability, T/C (second compound 0.03 µM, first compound 0.01 µM) was 15.9% and the viability, T/C [19] was 15.7%. The viability, T/C [20] was 17.9%, the viability, T/C [21] was 18.2% and the viability, T/C [22] was 22.9%. The viability, T/C (second compound 0.0949 µM, first compound 0.00316 µM) was 19.4%, the viability, T/C (second compound 0.0949 µM, first compound 0.01 µM) was 16.9% and the viability, T/C [23] was 15.9%. The viability, T/C [24] was 19%, the viability, T/C [25] was 21.3% and the viability, T/C [26] was 21.5%. It also gave a viability, T/C (second compound 0.3 µM, first compound 0.00316 µM) of 19.5%, a viability, T/C (second compound 0.3 µM, first compound 0.01 µM) of 22.9% and a viability, T/C [27] of 21.7%. The viability, T/C [28] was 20.2%, the viability, T/C [29] was 19.5% and the viability, T/C [30] was 24.9%.
